{
  "source": "patent EP0183174A2",
  "about": "“Substituted phenoxy urea, processes for its preparation and herbicide containing it as active ingredient” (KUMIAI CHEMICAL INDUSTRY CO., LTD., priority 1984, dated 1986)",
  "parameters_in_all_cases": "key: 5: Withered; 4.5: Herbicidal effect (or phytotoxicity) in a range of 90 to 99%; 4: Herbicidal effect (or phytotoxicity) in a range of 80 to 89%; 3.5: Herbicidal effect (or phytotoxicity) in a range of 70 to 79%; 3: Herbicidal effect (or phytotoxicity) in a range of 60 to 69%; 2.5: Herbicidal effect (or phytotoxicity) in a range of 50 to 59%; 2: Herbicidal effect (or phytotoxicity) in a range of 40 to 49%; 1.5: Herbicidal effect (or phytotoxicity) in a range of 30 to 39%; 1: Herbicidal effect (or phytotoxicity) in a range of 20 to 29%; 0.5: Herbicidal effect (or phytotoxicity) in a range of 1 to 19%; 0: No herbicidal effect (or no phytotoxicity)",
  "key": {"monochoria": {"tested_on": "monochoria", "assay": "Test Example 1: herbicidal test by water treatment in a paddy field", "format": "in vivo, Monochoria vaginalis Presl", "settings": "evaluated thirty days after application", "experimental": "(§1) Into each porcelain pot having a diameter of 10 cm, paddy soil was filled and puddled, and seeds of barnyardgrass (Echinochloa crus-galli L.), smallflower flatsedge, monochoria and Japanese bulrush were sown, and water was filled in a-depth of 3 cm. One day later, a predetermined amount of the wettable powder prepared in Formulation Example 3 and diluted with water was dropwise applied to the surface of the water (dose of the active ingredient: 4 kg/hectare). Thereafter, they were grown in a green house. Thirty days after the application, the herbicidal effects were evaluated in accordance with the standards as identified in Table 5."}, "barnyardgrass": {"tested_on": "barnyardgrass", "assay": "Test Example 3: herbicidal test by upland soil treatment", "format": "in vivo, Echinochloa crus-galli L.", "settings": "evaluated twenty days after application", "excerpt": "(§2) Into each plastic pot of 600 cm^2, upland soil was filled, then seeds of barnyardgrass, crabgrass, green foxtail, redroot pigweed, rice flatsedge, rice, wheat, maize, soybean, cotton and sugar beet were sown, and they were covered with soil. A predetermined amount of the wettable powder prepared from the test compound in accordance with Formulation Example 3 and diluted with water, was uniformly applied to the surface of the soil at an application rate of 1000 liter/hectare by means of a small size spray. They were grown in a greenhouse, and twenty days after the application, the herbicidal effects and phytotoxicity were evaluated in accordance with the standards as identified in Table 5."}, "crabgrass": {"tested_on": "crabgrass", "assay": "Test Example 4: herbicidal test by upland foliage treatment", "format": "in vivo, Digitaria sanquinalis L.", "experimental": "Into each plastic pot of 120 cm^2, upland soil was filled, then seeds of barnyardgrass, crabgrass, redroot pigweed and rice flatsedge were sown, and they were grown in a greenhouse until barnyardgrass. reached 3-leaf stage. Each wettable powder prepared from the test compound in accordance with Formulation Example 3 was diluted with water to give the amount of the active ingredient corresponding to 4 kg/hectare, and the diluted solution was uniformly sprayed at an application rate of 1000 liter/hectare from the top of plants by means of a small size spray, when barnyardgrass was in the 3-leaf stage. They were grown in a greenhouse, and twenty days after the application, the herbicidal effects were evaluated in accordance with the standards as identified in Table 5."}, "[1]": {"tested_on": "barnyardgrass (Echinochloa crus-galli L.)", "assay": "Test Example 1: herbicidal test by water treatment in a paddy field", "format": "in vivo", "settings": "evaluated thirty days after application", "experimental": "as §1"}, "redroot pigweed": {"tested_on": "redroot pigweed", "assay": "Test Example 3: herbicidal test by upland soil treatment", "format": "in vivo, Amaranthus retroflexus L.", "settings": "evaluated twenty days after application", "excerpt": "as §2"}, "[2]": {"settings": "dose of the active ingredient 4 kg/hectare, wettable powder applied to water surface one day after sowing"}, "[3]": {"settings": "active ingredient 4 kg/hectare, foliage spray 1000 liter/hectare at 3-leaf stage of barnyardgrass, twenty days after application"}, "[4]": {"settings": "water treatment in paddy field pot, dose of active ingredient 4 kg/hectare"}, "[5]": {"settings": "upland foliage treatment, 4 kg/hectare active ingredient, sprayed at 1000 liter/hectare at barnyardgrass 3-leaf stage, evaluated twenty days after application"}},
  "data": [
    {"smiles": "CN(C)C(=O)NOc1cc(Cl)ccc1Cl", "note": "[Compound No. 1, 3-(2,5-Dichlorophenoxy)-1,1-dimethyl urea]", "values": [
      {"measurement": "Herbicidal effects Monochoria", "setting": "monochoria; [2]", "value": 5},
      {"measurement": "Herbicidal effects Barnyard-grass", "setting": "barnyardgrass; Dose 1 kg/HA", "value": 5},
      {"measurement": "Herbicidal effects Barnyard-grass", "setting": "barnyardgrass; Dose 4 kg/HA", "value": 5},
      {"measurement": "Herbicidal effects Crabgrass", "setting": "crabgrass; [3]", "value": "4 (Herbicidal effect (or phytotoxicity) in a range of 80 to 89%)"},
      {"measurement": "Herbicidal effects Barnyard grass", "setting": "[1]; [2]", "value": 5},
      {"measurement": "Herbicidal effects Redroot pigweed", "setting": "redroot pigweed; Dose 1 kg/HA", "value": 5},
      {"measurement": "Herbicidal effects Redroot pigweed", "setting": "redroot pigweed; Dose 4 kg/HA", "value": 5}
    ]},
    {"smiles": "CC(C)N(C)C(=O)NOc1cc(Cl)cc(Cl)c1", "note": "[Compound No. 186, 3-(3,5-Dichlorophenoxy)-1-isopropyl-1-methyl urea trichloroacetate]", "values": [
      {"measurement": "Herbicidal effects Monochoria", "setting": "monochoria; [4]", "value": 5},
      {"measurement": "Herbicidal effects Barnyard-grass", "setting": "barnyardgrass; Dose 1 kg/HA", "value": 5},
      {"measurement": "Herbicidal effects Barnyard-grass", "setting": "barnyardgrass; Dose 4 kg/HA", "value": 5},
      {"measurement": "Herbicidal effects Crabgrass", "setting": "crabgrass; [3]", "value": 5},
      {"measurement": "Herbicidal effects Barnyard grass", "setting": "[1]; [4]", "value": 5},
      {"measurement": "Herbicidal effects Redroot pigweed", "setting": "redroot pigweed; Dose 1 kg/HA", "value": 5},
      {"measurement": "Herbicidal effects Redroot pigweed", "setting": "redroot pigweed; Dose 4 kg/HA", "value": 5}
    ]},
    {"smiles": "CON(C)C(=O)NOc1cc(Cl)ccc1Cl", "note": "[Compound No. 242, 3-(2,5-Dichlorophenoxy)-1-methoxy-1-methyl urea]", "values": [
      {"measurement": "Herbicidal effects Monochoria", "setting": "monochoria; [4]", "value": 5},
      {"measurement": "Herbicidal effects Barnyard-grass", "setting": "barnyardgrass; Dose 1 kg/HA", "value": 5},
      {"measurement": "Herbicidal effects Barnyard-grass", "setting": "barnyardgrass; Dose 4 kg/HA", "value": 5},
      {"measurement": "Herbicidal effects Crabgrass", "setting": "crabgrass; [5]", "value": 5},
      {"measurement": "Herbicidal effects Barnyard grass", "setting": "[1]; [4]", "value": 5},
      {"measurement": "Herbicidal effects Redroot pigweed", "setting": "redroot pigweed; Dose 1 kg/HA", "value": 5},
      {"measurement": "Herbicidal effects Redroot pigweed", "setting": "redroot pigweed; Dose 4 kg/HA", "value": 5}
    ]},
    {"smiles": "COCCNC(=O)NOc1cc(Cl)ccc1Cl", "note": "[Compound No. 243]", "values": [
      {"measurement": "Herbicidal effects Monochoria", "setting": "monochoria; [4]", "value": 5},
      {"measurement": "Herbicidal effects Barnyard-grass", "setting": "barnyardgrass; Dose 1 kg/HA", "value": 5},
      {"measurement": "Herbicidal effects Barnyard-grass", "setting": "barnyardgrass; Dose 4 kg/HA", "value": 5},
      {"measurement": "Herbicidal effects Crabgrass", "setting": "crabgrass; [5]", "value": "4 (Herbicidal effect (or phytotoxicity) in a range of 80 to 89%)"},
      {"measurement": "Herbicidal effects Barnyard grass", "setting": "[1]; [4]", "value": 5},
      {"measurement": "Herbicidal effects Redroot pigweed", "setting": "redroot pigweed; Dose 1 kg/HA", "value": 5},
      {"measurement": "Herbicidal effects Redroot pigweed", "setting": "redroot pigweed; Dose 4 kg/HA", "value": 5}
    ]}
  ]
}
